Measurements: ChEMBL document CHEMBL1201862, “PubChem BioAssay data set” (2004)
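Results reflect a 48-hour exposure of cells in 96-well plates to compound at five concentrations. The concentration for 50% growth inhibition is given as GI50.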 Active and inactive are the calls of the source. Rule as the data show it: active = GI50 up to about 1.1 µM and inactive = higher.

Tests used:
Test in all cases: NCI anticancer screen, dose series, 48 h
MCF7 = test system: MCF7
MDA-MB-435 = test system: MDA-MB-435
HCC 2998 = test system: HCC 2998
RPMI-8226 = test system: RPMI-8226
SK-OV-3 = test system: SK-OV-3
SNB-75 = test system: SNB-75
Malme-3M = test system: Malme-3M
786-0 = test system: 786-0
OVCAR-3 = test system: OVCAR-3
K562 = test system: K562
DU-145 = test system: DU-145
LOX IMVI = test system: LOX IMVI
NCI-H460 = test system: NCI-H460
Hs-578T = test system: Hs-578T
HCT-116 = test system: HCT-116
HL-60 = test system: HL-60
NCI-H23 = test system: NCI-H23
HOP-62 = test system: HOP-62
UACC-62 = test system: UACC-62
RXF 393 = test system: RXF 393

Measured: GI50

CSc1c(CC(=O)Nc2ccc(Cl)cc2)n(Cc2ccccc2)c2ccccc12
inactive: MCF7 18.6 µM | MDA-MB-435 49.3 µM | HCC 2998 19.5 µM | RPMI-8226 67.5 µM | SK-OV-3 41.4 µM | SNB-75 13 µM | Malme-3M 57.7 µM | 786-0 11.3 µM | OVCAR-3 > 100 µM | K562 28 µM | DU-145 38.5 µM | LOX IMVI 38 µM | NCI-H460 25.5 µM | Hs-578T 14.4 µM | HCT-116 23.9 µM | HL-60 > 100 µM | NCI-H23 29.1 µM | HOP-62 21.2 µM | UACC-62 18.1 µM | RXF 393 12.8 µM

O/N=C(/CC(O)(C(F)(F)F)C(F)(F)F)c1ccccc1
inactive: MCF7 > 10 µM | MDA-MB-435 > 10 µM | HCC 2998 > 10 µM | RPMI-8226 > 10 µM | SK-OV-3 > 10 µM | SNB-75 > 10 µM | Malme-3M > 10 µM | 786-0 > 10 µM | OVCAR-3 > 10 µM | K562 > 10 µM | DU-145 > 10 µM | LOX IMVI > 10 µM | NCI-H460 > 10 µM | Hs-578T > 10 µM | HCT-116 > 10 µM | HL-60 > 10 µM | NCI-H23 > 10 µM | HOP-62 > 10 µM | UACC-62 > 10 µM | RXF 393 > 10 µM

CC12C=CC(=O)C=C1CCC1C3CCC(O)(C(=O)CO)C3(C)CC(O)C12F (stereo not given)
inactive: MCF7 > 100 µM | MDA-MB-435 > 100 µM | HCC 2998 > 100 µM | RPMI-8226 17.1 µM | SK-OV-3 > 4.88 µM | SNB-75 > 100 µM | Malme-3M > 100 µM | 786-0 > 100 µM | OVCAR-3 > 100 µM | K562 > 100 µM | DU-145 > 100 µM | LOX IMVI > 100 µM | NCI-H460 > 100 µM | Hs-578T > 100 µM | HCT-116 > 100 µM | HL-60 > 100 µM | NCI-H23 > 100 µM | HOP-62 > 100 µM | UACC-62 > 100 µM | RXF 393 > 100 µM

CCN(CC)C(=O)Cn1c(C)cc2ccccc21
inactive: MCF7 > 100 µM | MDA-MB-435 > 100 µM | HCC 2998 > 100 µM | RPMI-8226 > 100 µM | SK-OV-3 > 100 µM | SNB-75 > 100 µM | Malme-3M > 100 µM | 786-0 > 100 µM | OVCAR-3 > 100 µM | K562 > 100 µM | DU-145 > 100 µM | LOX IMVI > 100 µM | NCI-H460 > 100 µM | Hs-578T > 100 µM | HCT-116 > 100 µM | HL-60 > 100 µM | NCI-H23 > 100 µM | HOP-62 > 100 µM | UACC-62 > 100 µM | RXF 393 > 100 µM

CC1=C(CO)C(=O)O[C@@H]([C@@H](C)[C@H]2CC[C@H]3[C@@H]4C[C@@H](O)[C@@]5(O)CC=CC(=O)[C@]5(C)[C@H]4CC[C@]23C)C1 [JABOROSALACTONE D]
inactive: MCF7 39.7 µM | MDA-MB-435 44.3 µM | HCC 2998 30.3 µM | RPMI-8226 24.9 µM | SK-OV-3 63.8 µM | SNB-75 25.9 µM | Malme-3M 15.7 µM | 786-0 20.8 µM | OVCAR-3 36 µM | K562 26.8 µM | DU-145 35.2 µM | LOX IMVI 23.5 µM | NCI-H460 19.1 µM | Hs-578T 35.7 µM | HCT-116 20.5 µM | HL-60 21.1 µM | NCI-H23 21.2 µM | HOP-62 64 µM | UACC-62 29.6 µM | RXF 393 22.3 µM

Cc1cc(S(=O)(=O)Nc2n[nH]c(Nc3ccccc3)n2)c(S)cc1Cl
inactive: MCF7 > 10 µM | MDA-MB-435 > 10 µM | HCC 2998 > 10 µM | RPMI-8226 > 10 µM | SK-OV-3 > 10 µM | SNB-75 > 10 µM | Malme-3M > 10 µM | 786-0 > 10 µM | OVCAR-3 > 10 µM | K562 > 10 µM | DU-145 > 10 µM | LOX IMVI > 10 µM | NCI-H460 > 10 µM | Hs-578T > 10 µM | HCT-116 > 10 µM | HL-60 > 10 µM | NCI-H23 > 10 µM | HOP-62 > 10 µM | UACC-62 > 10 µM | RXF 393 > 10 µM

O=C1NC(=S)NC(=O)C1=Cc1cccc2cc3ccccc3cc12
inactive: MCF7 1.8 µM | MDA-MB-435 2.12 µM | HCC 2998 2.04 µM | RPMI-8226 1.24 µM | SK-OV-3 2.83 µM | SNB-75 1.59 µM | Malme-3M 2.11 µM | 786-0 1.61 µM | OVCAR-3 1.76 µM | K562 2.07 µM | DU-145 1.47 µM | LOX IMVI 1.67 µM | NCI-H460 2.12 µM | Hs-578T 2.97 µM | HCT-116 1.95 µM | HL-60 1.71 µM | NCI-H23 1.87 µM | HOP-62 1.84 µM | UACC-62 1.87 µM | RXF 393 1.66 µM
